In patent US20110287439A1, “CLAS[…]” (reMYND NV, priority 2008, published 2011):

System: Yeast strain SKAM4 RAD54-LacZ reporter
Test: Radarscreen with luminescence and S9 metabolic activation
Conditions: analysed with S9 compared with without S9; 6 hours at 30° C.; 2% S9
Method: Yeast strain SKAM4 bears a RAD54-LacZ reporter construct, which is responsive to agents that affect the integrity of its genomic DNA. Compounds supplied to the growth medium can be evaluated for genotoxicity by determining their effect on reporter gene expression. Reporter activity is measured by adding Beta-Glo® cell lyses buffer, containing a beta-galactosidase substrate, to the yeast culture. The substrate is cleaved by beta-galactosidase to luciferin and galactose. Luciferin is then used in a luciferase reaction to generate light. Metabolic activation of the compounds is obtained by adding post mitochondrial supernatant S9. […]
OD595 of the overnight cultures has to be determined. […]
600 μl S9-mixture is added to 5280 μl of the diluted culture and 600 μl buffer without S9 to 5280 μl of the diluted culture (these are quantities to fill 1 plate). […] The OD595 is measured after the plates have been vortexed rigorously to resuspend the precipitated yeast cells. […]
50 μl Beta-Glo® cell lyses buffer is added to the wells and the plate is vortexed for 45-60 min whereafter luminescence is measured. […]
Luminescence read out blanc correction is performed by subtraction of the luminescence value of medium without yeast cells from the luminescence read out of a sample with compound and dividing it by the corrected and normalized OD595 value. […]

For `CC[n+]1c(-c2ccccc2)c2cc(N)ccc2c2ccc(N)cc21` [ethidium bromide], the “signal (induction factor)” value was “higher signal when analysed with S9 than when analysed without S9”.
